Test results published in patent publication US4055640A, “Compositions and methods for controlling the growth of bacteria, fungi and algae using certain derivatives of N-(2,2-dichlorovinyl)salicylamides” (Nippon Kayaku Co., Ltd., priority 1975, dated 1977).
In brackets after ≈: the same amount, converted by molar mass. Counter-ions that a name gives are not always drawn.

Tests used:
[1] = system: Fusarium wilt of cucumber; test: Exterminating test on Fusarium wilt of cucumber (Experimental Example 4); type: in vivo, Fusarium oxysporum f, cucumerinum; conditions: Fusarium, soil, 336 h, 500 ppm, soil drench 100 ml per pot, two weeks; read-out: Percentage of healthy seedlings
Procedure, shortened: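 Pots of steam-sterilized soil mixed with 20 g infested soil, sown with 18 cucumber seeds (Tokiwazibai), drenched with 100 ml aqueous suspension of 80% wettable powder. Benlate 50% wettable powder run as control. Disease scored two weeks after planting as percentage of healthy seedlings.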

[2] = system: Xanthomonas citri (citrus canker); test: Exterminating test on citrus canker (Experimental Example 6); type: in vivo; conditions: Xanthomonas citri, 336 h, read-out: Effect Index, 1,000 ppm, 2 weeks after inoculation
Procedure, shortened: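 Four-year-old potted summer orange seedlings sprayed with diluted 80% wettable powder, then needle-inoculated on leaves with Xanthomonas citri and held 24 h moist at 25 °C before greenhouse. Disease attack scored 2 weeks post-inoculation and expressed as an Effect Index.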

Aspergillus niger = test: Region of growth-inhibition around treated cotton cloth (Example 26); type: cell-based; conditions: emulsifiable concentrate diluted 100 times
Procedure, shortened: (§1)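 Cotton cloth soaked 2 min in a 100-fold water dilution of the emulsifiable concentrate, air-dried, cut into 1 cm squares and placed on inoculated potato-agar plates. After 4 days at 28 °C, width of the growth-inhibition zone around the cloth was measured.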

Bacillus subtilis [3] = test: as above; type: cell-based; conditions: emulsifiable concentrate diluted 100 times
Procedure, shortened: as §1

Penicillium Citrinum = test: as above; type: cell-based; conditions: emulsifiable concentrate diluted 100 times
Procedure, shortened: as §1

Staphylococcus oureus = test: as above; type: cell-based; conditions: emulsifiable concentrate diluted 100 times
Procedure, shortened: as §1

[4] = system: bacteria gathered from circular water system; test: Degree of propagation on slime test boards (Example 27); type: cell-based; conditions: shaking culture for 2 days
Procedure, shortened: (§2)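 Wood slime test boards were soaked in Waxman's liquid medium holding 0.02 part active compound (as 10% water-soluble concentrate) per 100 parts medium. Medium was inoculated with bacteria from a circular water system, fungi or green algae and shake-cultured 2 days at 27°-34° C. Propagation on the boards was scored with symbols.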

fungi = test: as above; type: cell-based; conditions: same method, shaking culture for 2 days
Procedure, shortened: as §2

green algae = test: as above; type: cell-based; conditions: same method, shaking culture for 2 days
Procedure, shortened: as §2

Bacillus subtilis [5] = test: Minimum inhibitory concentration, dilution methods (Example 14); type: cell-based; conditions: Bacillus subtilis
From the text: (§3) Bacteriocidal activity and fungicidal activity of the active compounds of the present invention were examined by potato-dextrose agar dilution method, [2] waxman's liquid medium dilution method or [3] glucose bouillon medium dilution method. The results are shown in Table 4 below as the minimum inhibitory concentration (the minimum concentration of active compound found to produce 100% control of the test bacteria and fungi).

Cladosporium harbarum = test: as above; type: cell-based; conditions: for minimum inhibitory concentration: (1) potato-dextrose agar dilution method
From the text: as §3

Escherichia coli = test: as above; type: cell-based; conditions: Escherichia coli
From the text: as §3

[6] = system: Bacteria, fungi and slime; test: Inhibition of bacteria, fungi and slime in use (Example 13); conditions: water soluble concentrate; 10-20 ppm in water, 0.01%-0.1% in pastes
Method: Before application, the concentrate was diluted 500-1000 times with water and sprayed on the inside of cotes to prevent the growth of bacterial and fungi.
The solution was added to water in circular water systems to inhibit the growth of slime. The concentration of Compound No. 20 in the water was 10-20 ppm.
An amount from 0.01%-0.1% of Compound No. 20 as the solution was added to pastes or binding agents to prevent rottenness of them.

[7] = acute oral toxicity against a mouse; conditions: in vivo
Bacillus subtilis [8] = test: Growth inhibition zones around treated clothes (Example 16); type: cell-based
Method: (§4) The emulsifiable concentrate which was prepared by Example 10 and which contained 10% of Compound No. 1 was entered to three vessels. These emulsifiable concentrates were diluted with water 500 times, 1000 times and 2000 times respectively. Emulsions were obtained. Each of silk, cotton and vinylon clothes was dipped into the three different concentrations of emulsions for 3 minutes and dried for 24 hours at room temperature. The clothes dreid were cut into a square of which a side was 1 cm long.
(§5) Test bacteria and fungi were inoculated on the whole surfaces of the plates of potato-dextrose agar medium. The square clothes were placed on the plates of agar culture medium of potato. The inoculated bacteria and fungi were incubated at 28° C for 4 days. The width of zones in which the growth of the test bateria and fungi was inhibited in the environment of the clothes was measured.

Staphylococcus aureus = test: as above; type: cell-based
Method: as §4, §5

[9] = (3) glucose bouillon medium dilution method
[10] = (1) potato-dextrose agar dilution method
[11] = (2) waxman's liquid medium dilution method

CC(=O)Oc1ccccc1C(=O)NC=C(Cl)Cl [Compound No. 6, O-acetyl-N-(2,2-dichlorovinyl) salicylamide]
pest or weed control at 500 ppm [1]: 83% | pest or weed control at 1000 ppm [2]: 96.1% | width of the region of growth-inhibition (Aspergillus niger): 5 mm | width of the region of growth-inhibition (Bacillus subtilis [3]): 9 mm | width of the region of growth-inhibition (Penicillium Citrinum): 7 mm | width of the region of growth-inhibition (Staphylococcus oureus): 7 mm | Degree of propagation [4]: - | Degree of propagation (fungi): - | Degree of propagation (green algae): -

O=C(NC=C(Cl)Cl)c1ccccc1O [Compound No. 20, sodium salt of N-(β,β-dichlorovinyl) salicylamide]
MIC (Bacillus subtilis [5]; [9]): 5 µg/mL | minimum inhibitory concentration (Cladosporium harbarum): 2.5 mc g/ml | MIC (Escherichia coli; [9]): 60 µg/mL | inhibition of bacteria, fungi and slime [6]: inhibited for a long time

O=C(NC=C(Cl)Cl)c1ccccc1O [Compound No. 1, N-(β,β-dichlorovinyl) salicylamide]
LD50 [7]: > 6000 mg/kg | MIC (Bacillus subtilis [5]; [10]): 2.5 µg/mL (≈ 10.8 µM) | MIC (Bacillus subtilis [5]; [11]): 5 µg/mL (≈ 21.5 µM) | minimum inhibitory concentration (Cladosporium harbarum): 10 mc g/ml | MIC (Cladosporium harbarum; Cladosporium, (2) waxman's liquid medium dilution method): 5 µg/mL (≈ 21.5 µM) | MIC (Escherichia coli; [10]): 80 µg/mL (≈ 345 µM) | MIC (Escherichia coli; [11]): 80 µg/mL (≈ 345 µM) | width of growth inhibition zones (Bacillus subtilis [8]; Cotton, 0.005 %): 3 mm | width of growth inhibition zones (Bacillus subtilis [8]; Cotton, 0.01 %): 6 mm | width of growth inhibition zones (Bacillus subtilis [8]; Cotton, 0.02 %): 10 mm | width of growth inhibition zones (Bacillus subtilis [8]; Silk, 0.005 %): 3 mm | width of growth inhibition zones (Bacillus subtilis [8]; Silk, 0.01 %): 6 mm | width of growth inhibition zones (Bacillus subtilis [8]; Silk, 0.02 %): 10 mm | width of growth inhibition zones (Bacillus subtilis [8]; Vinylon, 0.005 %): 2 mm | width of growth inhibition zones (Bacillus subtilis [8]; Vinylon, 0.01 %): 5 mm | width of growth inhibition zones (Bacillus subtilis [8]; Vinylon, 0.02 %): 9 mm | width of growth inhibition zones (Staphylococcus aureus; Cotton, 0.005 %): 5 mm | width of growth inhibition zones (Staphylococcus aureus; Cotton, 0.01 %): 9 mm | width of growth inhibition zones (Staphylococcus aureus; Cotton, 0.02 %): 13 mm | width of growth inhibition zones (Staphylococcus aureus; Silk, 0.005 %): 5 mm | width of growth inhibition zones (Staphylococcus aureus; Silk, 0.01 %): 8 mm | width of growth inhibition zones (Staphylococcus aureus; Silk, 0.02 %): 12 mm | width of growth inhibition zones (Staphylococcus aureus; Vinylon, 0.005 %): 4 mm | width of growth inhibition zones (Staphylococcus aureus; Vinylon, 0.01 %): 7 mm | width of growth inhibition zones (Staphylococcus aureus; Vinylon, 0.02 %): 11 mm
